Measured values as given in EP2210604A1, “PHARMACEUTICAL COMPOSITIONS COMBINING A NONSTEROIDAL ANTI-INFLAMMATORY AGENT AND A XANTHINE OXIDASE INHIBITING AGENT, WHICH CAN BE USED TO CONTROL AND TREAT GOUT, GOUTY ARTHRITIS AND RELATED DISEASES” (Espinosa Abdala, Leopoldo de Jesús, priority 2007, dated 2009).

How the values were obtained:
[1] = tested on: patients with Gouty arthritis; test: Clinical study (Phase I): combination of Allopurinol/Meloxicam vs independent delivery, 52 weeks follow-up; format: in vivo; conditions: for Uric Acid Average, baseline / Uric Acid Average, at the end of study: Allopurinol 300 mg per day, Meloxicam 15 mg per day, or combination 300 mg/15 mg, n=50 per group; for Uric Acid Average, at the end of study: end of study (52 weeks)
Method: A clinical study was carried out assessing the efficacy of a combination of Allopurinol/Meloxicam vs independent delivery of Allopurinol and Meloxicam in patients with Gouty arthritis.
There were 150 patients with gout and with uric acid levels at least of 8 mg/dL randomly selected for this study.
Main validation criterion was uric acid concentration of 6 mg/dL, in the last 3 monthly determinations. Secondary validation criteria included a reduction of incidence in gout worsening events.

[2] = tested on: arthritic pain model in rat; test: PIFIR model: uric acid-induced arthritic pain model in rat, antinociceptive activity; conditions: oral; for DE50: dose causing 50% of maximum possible effect, drug alone
Method: An arthritic pain model in rat was determined for said purpose. Data were interpreted by a Surface Synergistic Interaction analysis (ISS) and an isobolographic analysis to determine the interaction nature. ISS was calculated from the total antinociceptive effect produced by the combination after subtracting the antinociceptive effect produced by drug separately.
For this study Wistar female rats were used [Crl (WI) BR] weighing between 180 to 200 gr. […] Number of animals in experiment was kept minimal and animals were kept in a room with climate and light control with a 12-hour light/dark cycle.
At the completion of study rats were sacrificed.
Animals were anesthesized with ether in a chamber (Pyrex glass dryer with ether vapor). Nociception was induced through a 0.05 mL uric acid intraarticular (ia) injection suspended in mineral oil in knee joint from right back leg. The suspension was prepared by milling 3.0 g. of uric acid with 10 mL of mineral oil in a glass mortar with pestle (Pyrex). Intraarticular injection was carried out through patellar ligament using a 1 mL glass syringe (Beckton Dickinson LTA, Brazil) with a 5 mm 24-gauge needle. An electrode was implanted immediately after to the plantar surface of each back claw between plantar pads. […] Contact time between each electrode from rat limb and cylinder was registered. […] This time was determined as zero time for measuring antinociceptive effects; these effects were measured every 30 minutes during the following 4 hours. This allowed determining the time course for antinociceptive effects in the same animal. Antinociception was considered as a recovery of contact time. Data are expressed as Functionality percentage index (IF%, that is, contact time on injected leg by the contact time in left leg, control, multiplied by 100). For the purpose of this study, nociception induction in experimental animals was unavoidable. However, care was taken to prevent an unnecessary suffering. All experiments were performed between 7:00 am and 2:00 pm.
Study data, tables and figures are expressed as IF%. Curves for IF% vs time were prepared for each treatment and the corresponding course time was obtained. Antinociception was estimated as a recovery of IF%. Accumulated antinociceptive effect during the whole observation period (4 hours) was determined as the area below the curve (ABC) from time course to obtain a dose-response curve and for analyzing the total antinociceptive effect obtained by analgesic agent whether alone or in combination.
ABC was calculated for each drug combination and for each of the components. […] If the […] ABC was higher than the theoretical sum, the result was considered enhancement; when it was similar to the theoretical sum then was determined to show additive antinociceptive effects. […] All values for each treatment are average ± S. E. M., for six animals. ABC values for drug combinations were compared with expected values using the Student test.
Doses which caused 50% of maximum possible effect (DE50) of each drug were calculated by performing a linear regression analysis of the linear portion from dose-response curves. The isobologram was prepared by using the DE50 when drugs were delivered alone or in combination. […] DE50 value from combination total dose was calculated from the dose-response curve of combined drugs. Statistical significance between additive theoretical point and DE50 experimental value was validated by using the Student test.

[3] = cited from earlier work
plasma proteins = conditions: cited from earlier work

Oc1ncnc2[nH]ncc12 [Allopurinol]
global incidence of acute events ([1]; along 9 to 52 weeks, comparison between groups): similar | Uric Acid Average, baseline [1]: 9 mg/dL | Uric Acid Average, at the end of study [1]: 7 mg/dL | adverse events reported (gastrointestinal upset) ([1]; number of events per group of 50 patients, 52 weeks): Six | ABC ([2]; Allopurinol 10.0 mg/kg alone, 4 hours): 22.5 ± 9.3 au | ABC ([2]; Allopurinol 17.78 mg/kg alone, 4 hours): 58.2 ± 23.7 au | antinociceptive efficacy (ABC) ([2]; Allopurinol 56.23 mg/kg, 4 hours): 207.7 ± 24.7 au | side effects in animals ([2]; Allopurinol at 100 mg/kg): did not cause side effects | walking capability of treated rats ([2]; Meloxicam 0.18-5.62 mg/kg, Allopurinol 3.16-56.23 mg/kg): did not affect the walking capability | DE50 [2]: 44.29 ± 0.06 mg/kg | ingested drug excreted in stools ([3]; in vivo): About 20%

Cc1ccc(-c2cc(C(F)(F)F)nn2-c2ccc(S(N)(=O)=O)cc2)cc1 [Celecoxib]
time to maximum plasma levels ([3]; after oral dose): about 3 hours | dose recovered in feces ([3]; as metabolites): 57% | dose recovered in urine ([3]; as metabolites): 27% | half-life ([3]; clearance half-life): about 11 hours | Plasmatic clearance ([3]; in vivo): about 500 mL/min | distribution volume ([3]; in vivo): about 400 L

Cc1cnc(NC(=O)C2=C(O)c3ccccc3S(=O)(=O)N2C)s1 [Meloxicam]
Uric Acid Average, baseline [1]: 10 mg/dL | Uric Acid Average, at the end of study [1]: 9 mg/dL | ABC ([2]; Meloxicam 0.32 mg/kg alone, 4 hours): 65.0 ± 9.6 au | ABC ([2]; Meloxicam 0.56 mg/kg alone, 4 hours): 98.7 ± 15.5 au | ABC ([2]; Meloxicam 1.78 mg/kg alone, 4 hours): 279.0 ± 15.5 au | antinociceptive efficacy (ABC) ([2]; Meloxicam 2.16 mg/kg (so in the source), 4 hours): 295.8 ± 14.9 au | antinociceptive effect (ABC) ([2]; Meloxicam 3.16 mg/kg (maximum used dosage), 4 hours): 295.8 ± 14.9 au | DE50 [2]: 0.86 ± 0.10 mg/kg | bioavailability ([3]; oral): 89% | adherence with plasma proteins (plasma proteins): > 99%
